Assays:
RASFCs = experiment: Synovial fibroblast assay, IL-6 ELISA; format: cell-based, human; details: RASFCs treated with TNF (10 ng/ml), 200 μm compound, supernatants at 72 hr, n=3, DMSO vehicle = 100%
Procedure: Synovial Fibroblast Assay
To assess the compounds in human rheumatoid arthritis samples the following protocol was employed:
Isolation of Primary Fibroblasts: RA synovial biopsies were digested with 1 mg/ml collagenase type 1 (Worthington Biochemical, Freehold, NJ, USA) in RPMI-1640 (Gibco-BRL, Paisley, UK) for 4 hr at 37° C. in humidified air with 5% CO2. Dissociated cells were grown to confluence in RPMI 1640, 10% FCS (Gibco-BRL), 10 ml of 1 mmol/l HEPES (Gibco-BRL), penicillin (100 units/ml; Bioscience), streptomycin (100 units/ml; Bioscience) and fungizone (0.25 μg/ml; Bioscience) before passaging. Cells were used between passages 3-8.
Compounds (200 μm) were tested on n=3 RASFCs
RASFCs were grown to 80% confluency in 48 well plates. RASFCs were treated with TNF (10 ng/ml) in the presence of 200 μm of each compound. Media was replaced after 24 h and fresh media and compound was added. Cell supernatants were collected at 72 hr time point. DMSO treated cells were used as a vehicle control (Red dotted line represents DMSO control).
IL-6 ELISA: Levels of pro-inflammatory cytokine IL6 were measured in cultured RASFC supernatants by specific ELISA (R&D systems, UK) according to manufacturer's conditions.
This assay measures the production of IL-6 as an indication of immune system activation: the lower the value the better from the point of view of alleviating RA symptoms. […]

[1] = target: T1, queuine-tRNA ribosyltransferase enzyme complex (hQTRT1:hQTRT2) (Homo sapiens, UniProt Q9BXR0); experiment: [8-14C] guanine displacement assay (TGT substrate); format: biochemical; details: 50 μM compound, 30 mins at 37° C., ≥5% is considered a positive substrate for TGT
T1 construct: polyhistidine (N); made in house; host or cells: E. coli BL21(DE3) tgt::Kmr
Procedure: Compounds capable of acting as a queuine-tRNA ribosyltransferase enzyme complex substrate may be identified by use of a displacement assay as described below:
Production of [8-^14C] Guanine Labeled tRNA (tRNA*)
Before adding the 8-[^14C] guanine solution to the reaction the solution was neutralised with an equal volume (vol/vol) 0.01 M NaOH, as the [8-^14C] Guanine is supplied in 0.01 M HCl aqueous solution. In vitro synthesised human tyrosyl tRNA was prepared by T7 transcription in ultrapure nuclease-free water as described previously (Alqasem et al., 2020). Recombinant human QTRT1 enzyme containing an N-terminal polyhistidine tag and human QTRT2 containing a C-terminal TEV-Strep-Tag®II tag were produced in BL21(DE3) tgt::Kmr cells as described previously (Alqasem et al., 2020).
The reaction was incubated for 1 hour at 37° C. […] The tRNA* pellet was resuspended in 30 μL nuclease-free water and the concentration measured spectrophotometrically at A260. […]
After 30 mins the reactions were quenched by mixing with 2.5 ml ice-cold 10% trichloroacetic acid (TCA) and placed on ice for one hour to precipitate the tRNA. […] The vacuum manifold was disassembled, the filters recovered and dried again at room temperature before being placed in scintillation vials containing 10 ml of Ecoscint A and radioactivity levels measured by scintillation counting. […]

T1 sequence (Q9BXR0 whole entry): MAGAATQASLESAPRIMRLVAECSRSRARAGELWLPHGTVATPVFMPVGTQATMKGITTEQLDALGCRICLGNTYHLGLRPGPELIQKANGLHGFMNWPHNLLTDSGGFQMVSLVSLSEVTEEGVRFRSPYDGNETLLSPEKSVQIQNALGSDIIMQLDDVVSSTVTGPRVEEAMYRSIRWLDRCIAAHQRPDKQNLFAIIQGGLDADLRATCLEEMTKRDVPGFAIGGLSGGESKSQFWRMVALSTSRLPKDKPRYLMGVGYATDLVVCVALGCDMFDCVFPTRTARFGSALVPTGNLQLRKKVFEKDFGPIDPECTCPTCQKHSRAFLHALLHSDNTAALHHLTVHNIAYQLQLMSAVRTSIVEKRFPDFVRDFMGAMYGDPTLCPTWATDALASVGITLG
T1 sequence (Q9H974 whole entry partner): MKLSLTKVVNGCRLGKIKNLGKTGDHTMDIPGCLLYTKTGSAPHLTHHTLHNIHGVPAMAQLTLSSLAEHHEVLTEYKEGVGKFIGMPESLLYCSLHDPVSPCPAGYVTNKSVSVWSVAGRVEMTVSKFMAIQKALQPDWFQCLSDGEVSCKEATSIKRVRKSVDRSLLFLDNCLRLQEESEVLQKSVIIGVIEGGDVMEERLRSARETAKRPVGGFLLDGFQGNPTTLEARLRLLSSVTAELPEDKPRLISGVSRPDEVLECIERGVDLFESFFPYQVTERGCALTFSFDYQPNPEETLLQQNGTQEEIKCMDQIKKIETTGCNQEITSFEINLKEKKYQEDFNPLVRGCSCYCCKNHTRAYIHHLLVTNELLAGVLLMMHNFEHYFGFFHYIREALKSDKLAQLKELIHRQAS

SMILES | Level of IL6 expression compared to vehicle (RASFCs) | displacement of the [14C] guanine [1]
Nc1nc2[nH]cc(CNOCCc3ccccc3)c2c(=O)[nH]1 [Example 1, 2-Amino-5-((phenethoxyamino)methyl)-3,7-dihydro-4H-pyrrolo[2,3-d]pyrimidin-4-one] | Reduction to 17% | –
CO/N=C/c1c[nH]c2nc(N)[nH]c(=O)c12 [Example 2, 2-Amino-4-oxo-4,7-dihydro-3H-pyrrolo[2,3-d]pyrimidine-5-carbaldehyde O-methyl oxime] | Reduction to 15% | –
Nc1nc2[nH]cc(/C=N/O)c2c(=O)[nH]1 [Example 4, 2-Amino-4-oxo-4,7-dihydro-3H-pyrrolo[2,3-d]pyrimidine-5-carbaldehyde oxime] | Reduction to 15% | –
C[C@@H]1CCN(C(=O)CC#N)C[C@@H]1N(C)c1ncnc2[nH]ccc12 [Tofacitinib, reference compound] | Reduction to 58% | –
Nc1nc2[nH]cc(CN[C@H]3C=C[C@H](O)[C@@H]3O)c2c(=O)[nH]1 [queuine base, queuine] | – | > 98%
